Structures can show the parent of a compound that is named as a salt. Where two headings read alike, the source gives them in different places.
Legend:
Clone V cells = conditions: human
[1] = target: T1, FGF14:Nav1.6 C-tail complex (Homo sapiens, UniProt Q92915+Q9UQD0); assay: Split-luciferase complementation assay (LCA) in Clone V double stable HEK293 cells; assay type: cell-based; conditions: for Split Luciferase Assay Z-score Set 1 / Split Luciferase Assay Z-score Set 2: normalized to on-plate 0.3% DMSO controls
T1 construct: polymerase chain reaction (PCR) amplification of the FGF14 open reading frame (nt 1–855); C-terminal fragment of Nav1.6 (amino acids 1763–1976) fused with CD4ΔC-tail (amino acids 1–395); expressed in transfected cells

in vitro = conditions: human
[2] = target: full-length P. pyralis luciferase (Photinus pyralis, UniProt P08659, K549A/L550V/N119G/N50D/S548I); assay type: cell-based
[3] = CC_NCI screening, biological replicate Set 1
[4] = CC_NCI screening, biological replicate Set 1, normalized to on-plate 0.3% DMSO controls (n=16 per plate)
[5] = CC_NCI screening, biological replicate Set 2
[6] = CC_NCI screening, biological replicate Set 2, normalized to on-plate 0.3% DMSO controls (n=16 per plate)
[7] = average of Set 1 and Set 2, normalized to 0.3% DMSO controls
[8] = CC_NCI screening, normalized to on-plate 0.3% DMSO controls

Chain of full-length P. pyralis luciferase (P08659 whole entry N50D/N119G/S548I/K549A/L550V, looked up): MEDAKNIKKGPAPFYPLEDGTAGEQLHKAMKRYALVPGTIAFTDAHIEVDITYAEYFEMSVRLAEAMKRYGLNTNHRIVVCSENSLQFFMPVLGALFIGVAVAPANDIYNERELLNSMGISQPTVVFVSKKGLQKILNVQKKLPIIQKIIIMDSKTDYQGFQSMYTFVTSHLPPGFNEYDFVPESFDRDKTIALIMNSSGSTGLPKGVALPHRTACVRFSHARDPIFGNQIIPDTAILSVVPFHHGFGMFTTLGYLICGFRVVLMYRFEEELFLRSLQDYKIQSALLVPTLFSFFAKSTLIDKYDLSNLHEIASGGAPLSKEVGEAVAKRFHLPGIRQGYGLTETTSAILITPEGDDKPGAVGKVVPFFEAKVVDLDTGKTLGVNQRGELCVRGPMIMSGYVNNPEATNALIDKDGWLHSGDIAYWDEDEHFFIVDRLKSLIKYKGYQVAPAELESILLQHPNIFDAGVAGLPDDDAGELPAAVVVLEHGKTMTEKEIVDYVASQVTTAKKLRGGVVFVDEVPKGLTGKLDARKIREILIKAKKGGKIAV
T1 sequence (Q92915 1-252 isoform Q92915-2): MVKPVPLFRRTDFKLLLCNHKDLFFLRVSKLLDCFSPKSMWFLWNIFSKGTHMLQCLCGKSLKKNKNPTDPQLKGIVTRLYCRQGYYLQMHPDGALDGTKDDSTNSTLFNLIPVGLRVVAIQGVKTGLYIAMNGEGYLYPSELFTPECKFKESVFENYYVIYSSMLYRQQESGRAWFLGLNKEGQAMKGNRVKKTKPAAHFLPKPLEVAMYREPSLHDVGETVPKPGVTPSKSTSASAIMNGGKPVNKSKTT
T1 sequence (Q9UQD0 1763-1976 limits assumed): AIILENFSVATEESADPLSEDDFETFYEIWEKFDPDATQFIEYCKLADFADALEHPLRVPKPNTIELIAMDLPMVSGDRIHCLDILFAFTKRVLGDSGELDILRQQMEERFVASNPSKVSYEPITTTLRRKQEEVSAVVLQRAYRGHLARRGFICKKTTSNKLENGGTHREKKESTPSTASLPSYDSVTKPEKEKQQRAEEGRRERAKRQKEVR

Row | SMILES | Toxicity Assay Z-score (CTB cell viability) (Clone V cells; 16 h, 30 µM) | Split Luciferase Assay Z-score Set 1 [1, 3] | Split Luciferase Assay % Lum Set 1 [1, 4] [%] | Split Luciferase Assay Z-score Set 2 [1, 5] | Split Luciferase Assay %Lum Set 2 [1, 6] [%] | Split Luciferase Assay %Lum Avg [1, 7] [%] | viability at 16 h, 30 µM (in vitro) [%] | Luciferase Assay % Lum (full-length luciferase counter-screen) [2] [%] | Luciferase Assay Z-score (full-length luciferase counter-screen) [2] | Luciferase Assay % Lum (full-length luciferase counter-screen) [2, 8] [%] | Luciferase Assay Z-score (full-length luciferase counter-screen) [2, 8] | viability at 16 h, 30 µM (in vitro; Clone V cells) [%] | Toxicity Assay Z-score (CTB cell viability) (Clone V cells) | Split Luciferase Assay % Lum Set 1 [1] [%] | Split Luciferase Assay %Lum Avg [1] [%] | Split Luciferase Assay %Lum Set 2 [1] [%] | viability (in vitro) [%] | Z-score (LCA primary screening) ([1]; 30 µM, 384-well, average of primary screening (n = 2), vs on-plate 0.3% DMSO) | EMax (% Luminescence) ([1]; agonists, Clone V cells, 384-well, normalized to DMSO) | EC50 ([1]; estimated, 8-point dose response 0.25-30 µM, n = 4 per concentration, library compounds, read-out: EC50) [µM]
1 | C[C@@H](CN1CC(=O)NC(=O)C1)N1CC(=O)NC(=O)C1 [Dexrazoxane] | 2.09 | 1.26 | 115.56 | 1.51 | 118.60 | 117.08 | 115 | 109.07 | 1.16 |  |  |  |  |  |  |  |  |  |  | 
2 | Cc1c[nH]c(-c2cnc(NCCNc3ccc(C#N)cn3)nc2-c2ccc(Cl)cc2Cl)n1 [CHIR 99021] | 1.07 | -4.98 | 38.37 | -5.60 | 31.21 | 34.79 | 108 |  |  | 70.15 | -3.82 |  |  |  |  |  |  |  |  | 
3 | Nc1ccn([C@@H]2O[C@H](CO)[C@@H](O)[C@@H]2O)c(=O)n1 [Cytarabine hydrochloride] | 1.12 | -0.50 | 93.82 | 0.16 | 101.95 | 97.88 | 108 |  |  | 93.77 | -0.80 |  |  |  |  |  |  |  |  | 
4 | CC(=O)O[C@H]1C(=O)[C@@]2(C)[C@H]([C@H](OC(=O)c3ccccc3)[C@]3(O)C[C@H](OC(=O)[C@H](O)[C@@H](NC(=O)c4ccccc4)c4ccccc4)C(C)=C1C3(C)C)[C@]1(OC(C)=O)CO[C@@H]1C[C@@H]2O [Paclitaxel] | 1.59 | -1.03 | 87.29 | -0.43 | 94.67 | 90.98 | 111 |  |  | 114.27 | 1.83 |  |  |  |  |  |  |  |  | 
5 | C#Cc1cccc(Nc2ncnc3cc(OCCOC)c(OCCOC)cc23)c1 [ERLOTINIB] | 0.46 | -0.76 | 90.56 | -1.53 | 81.14 | 85.85 |  |  |  | 80.96 | -2.44 | 103 |  |  |  |  |  |  |  | 
6 | O=NN(CCCl)C(=O)NC1CCCCC1 [Lomustine] |  | 0.12 |  | 2.53 |  |  |  |  |  | 109.33 | 1.20 |  | 0.41 | 101.43 | 116.25 | 131.08 | 103 |  |  | 
7 | O=c1cc(N2CCOCC2)oc2c(-c3ccccc3)cccc12 [LY 294002] | -0.14 | -0.94 | 88.38 | -1.87 | 76.98 | 82.68 | 99 |  |  | 80.46 | -2.50 |  |  |  |  |  |  |  |  | 
8 | CCCCCOC(=O)Nc1nc(=O)n([C@@H]2O[C@H](C)[C@@H](O)[C@H]2O)cc1F [Capecitabine] | 1.00 | 1.96 | 124.26 | 1.17 | 114.43 | 119.35 |  |  |  | 100.06 | 0.01 | 107 |  |  |  |  |  |  |  | 
9 | NCC(=O)CCC(=O)O [Aminolevulinic acid hydrochloride] | 0.31 | -0.06 | 99.25 | 0.75 | 109.23 | 104.24 |  |  |  | 100.02 | 0.00 | 102 |  |  |  |  |  |  |  | 
10 | CNNCc1ccc(C(=O)NC(C)C)cc1 [Procarbazine hydrochloride] | 1.21 | 1.52 | 118.82 | -0.26 | 96.75 | 107.78 | 109 | 99.34 | -0.08 |  |  |  |  |  |  |  |  |  |  | 
11 | CC1(C)CNc2cc(NC(=O)c3cccnc3NCc3ccncc3)ccc21 [MOTESANIB] | -0.04 | -1.77 | 78.05 | -0.86 | 89.47 | 83.76 |  |  |  | 76.36 | -3.03 | 99.7 |  |  |  |  |  |  |  | 
12 | CC(=O)[C@]1(O)Cc2c(O)c3c(c(O)c2[C@@H](O[C@H]2C[C@H](N)[C@H](O)[C@H](C)O2)C1)C(=O)c1ccccc1C3=O [Idarubicin hydrochloride] | 1.79 | 0.12 | 101.43 | -0.69 | 91.55 | 96.49 |  |  |  | 114.41 | 1.85 | 113 |  |  |  |  |  |  |  | 
13 | O=C(O)CCCc1ccc(N(CCCl)CCCl)cc1 [Chlorambucil, reference compound] |  | 13.12 | 262.32 | 11.67 | 243.43 | 252.88 |  |  |  | 97.90 | -0.27 |  | 0.71 |  |  |  | 105 | 12.39 | 252.88 | 16.4
14 | NC(=O)Nc1cc(-c2cccc(F)c2)sc1C(=O)N[C@H]1CCCNC1 [AZD 7762] |  | -1.38 | 82.95 | -2.63 | 67.62 | 75.28 |  |  |  | 92.74 | -0.93 |  | 0.35 |  |  |  | 102 |  |  | 
15 | CC(C)Cn1cnc2c(N)nc3ccccc3c21 [Imiquimod] | 1.03 | 1.35 | 116.65 | 1.01 | 112.35 | 114.50 | 107 |  |  | 104.72 | 0.60 |  |  |  |  |  |  |  |  | 
16 | Oc1cccc(-c2nc(N3CCOCC3)c3oc4ncccc4c3n2)c1 [PI-103] | 2.64 | 0.91 | 111.21 | -0.43 | 94.67 | 102.94 |  |  |  |  | 0.79 | 119 |  |  |  |  |  |  |  | 
17 | CC[C@]1(O)C[C@@H]2CN(CCc3c([nH]c4ccccc34)[C@@](C(=O)OC)(c3cc4c(cc3OC)N(C)[C@H]3[C@@](O)(C(=O)OC)[C@H](OC(C)=O)[C@]5(CC)C=CCN6CC[C@]43[C@@H]65)C2)C1 [Vinblastine sulfate] | 1.05 | 9.52 | 217.75 | 5.32 | 165.41 | 191.58 | 108 |  |  | 109.75 | 1.25 |  |  |  |  |  |  |  |  | 
18 | COc1cc([C@@H]2c3cc4c(cc3[C@@H](O[C@@H]3O[C@@H]5CO[C@@H](c6cccs6)O[C@H]5[C@H](O)[C@H]3O)[C@H]3COC(=O)[C@H]23)OCO4)cc(OC)c1O [Teniposide] | 0.66 | 1.61 | 119.91 | 2.11 | 125.88 | 122.89 |  |  |  | 92.82 | -0.92 | 105 |  |  |  |  |  |  |  | 
